Data from the supplement of paper PMC10307832.

Legend:
Assay in all cases: relative viability (nuclei count vs DMSO), 5 days (fraction); higher = more cells survive
Doramapimod + Decitabine = compound: Cc1ccc(-n2nc(C(C)(C)C)cc2NC(=O)Nc2ccc(OCCN3CCOCC3)c3ccccc23)cc1 [Doramapimod] + Nc1ncn([C@H]2C[C@H](O)[C@@H](CO)O2)c(=O)n1 [Decitabine] (partner 2 µM)
Outline: (§1)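 Relative viability was taken as the ratio of nuclei in treated wells to nuclei in vehicle wells. Lung cancer cell lines in 1536-well plates received compounds by pin tool one day after seeding, either one drug alone or a fixed anchor-drug dose plus five library-drug doses (not always all listed) in √10 steps. Nuclei were counted on 4× images after 5 days of treatment, and values are medians of duplicate plates.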

RAF265 + Luminespib = compound: Cn1c(Nc2ccc(C(F)(F)F)cc2)nc2cc(Oc3ccnc(-c4ncc(C(F)(F)F)[nH]4)c3)ccc21 [RAF265] + CCNC(=O)c1noc(-c2cc(C(C)C)c(O)cc2O)c1-c1ccc(CN2CCOCC2)cc1 [Luminespib] (partner 0.01 µM)
Outline: as §1

IPA-3 + Crizotinib = compound: C1=CC=C2C(=C1)C=CC(=C2SSC3=C(C=CC4=CC=CC=C43)O)O [IPA-3] + C[C@@H](Oc1cc(-c2cnn(C3CCNCC3)c2)cnc1N)c1c(Cl)ccc(F)c1Cl [Crizotinib] (partner 1 µM)
Outline: as §1

IPA-3 + Bortezomib = compound: C1=CC=C2C(=C1)C=CC(=C2SSC3=C(C=CC4=CC=CC=C43)O)O [IPA-3] + CC(C)C[C@H](NC(=O)[C@H](Cc1ccccc1)NC(=O)c1cnccn1)B(O)O [Bortezomib] (partner 0.002 µM)
Outline: as §1

Cell Line	relative viability (Doramapimod + Decitabine; first compound 0.02 µM)	relative viability (Doramapimod + Decitabine; first compound 0.06325 µM)	relative viability (Doramapimod + Decitabine; first compound 0.2 µM)	relative viability (Doramapimod + Decitabine; first compound 0.6325 µM)	relative viability (Doramapimod + Decitabine; first compound 2 µM)	relative viability (RAF265 + Luminespib; first compound 0.01 µM)	relative viability (RAF265 + Luminespib; first compound 0.03162 µM)	relative viability (RAF265 + Luminespib; first compound 0.1 µM)	relative viability (RAF265 + Luminespib; first compound 0.3162 µM)	relative viability (RAF265 + Luminespib; first compound 1 µM)	relative viability (IPA-3 + Crizotinib; first compound 0.2 µM)	relative viability (IPA-3 + Crizotinib; first compound 0.6325 µM)	relative viability (IPA-3 + Crizotinib; first compound 2 µM)	relative viability (IPA-3 + Crizotinib; first compound 6.325 µM)	relative viability (IPA-3 + Crizotinib; first compound 20 µM)	relative viability (IPA-3 + Bortezomib; first compound 0.2 µM)	relative viability (IPA-3 + Bortezomib; first compound 0.6325 µM)	relative viability (IPA-3 + Bortezomib; first compound 2 µM)	relative viability (IPA-3 + Bortezomib; first compound 6.325 µM)	relative viability (IPA-3 + Bortezomib; first compound 20 µM)
NCI-H1993	0.537	0.578	0.511	0.668	0.53	0.852	0.75	0.9	1.42	0.774	0.71	0.811	0.885	0.889	0.998	1.04	1.14	1.14	1.1	1.21
NCI-H23	0.359	0.288	0.358	0.329	0.265	0.22	0.225	0.221	0.212	0.221	0.488	0.376	0.599	0.545	0.654	1.39	0.964	1.08	1.06	0.797
NCI-H1437	0.541	0.554	0.647	0.624	0.598	1.02	1.07	1.08	1.23	1.11	1.19	0.896	1.04	0.895	1.34	1.09	0.467	0.443	0.438	0.587
NCI-H2405	0.758	0.713	0.703	0.861	0.685	0.638	0.812	0.722	0.476	0.548	0.863	0.865	0.856	0.841	0.878	1.02	0.944	1.02	0.963	1.02
NCI-H2023	0.233	0.211	0.263	0.218	0.216	0.802	0.78	0.674	0.837	0.454	0.714	0.58	0.809	0.735	0.893	1.19	0.9	1.05	1.17	1.11
NCI-H838	0.455	0.477	0.499	0.476	0.472	0.284	0.226	0.344	0.309	0.288	1.02	0.788	0.914	0.839	1.27	1.89	0.847	0.667	1.03	0.815
NCI-H661	0.563	0.564	0.63	0.631	0.492	0.973	0.694	0.658	0.486	0.412	1.06	0.847	1.08	0.988	1.03	0.972	0.779	0.915	0.967	0.897
NCI-H1734	0.476	0.47	0.489	0.51	0.363	0.227	0.189	0.178	0.17	0.17	0.745	0.648	0.71	0.703	0.698	0.973	0.812	1.03	0.995	0.87
NCI-H1650	0.412	0.409	0.515	0.409	0.283	0.176	0.208	0.192	0.205	0.216	1.04	0.816	1.14	0.938	1.28	0.223	0.193	0.186	0.283	0.27
NCI-H596	1	0.97	1.02	0.995	1	1.11	1.06	0.962	1.01	0.625	1.08	0.597	1.08	1.1	1.24	1.33	1.12	1.18	0.914	1.17
HCC-15	0.64	0.621	0.63	0.645	0.681	0.27	0.229	0.388	0.159	0.173	0.812	0.855	0.825	0.776	0.886	1.34	0.99	0.838	1.02	1.21
NCI-H727	0.855	0.852	0.999	0.736	0.767	0.332	0.345	0.6	0.383	0.263	0.937	0.765	0.818	0.699	0.792	0.841	0.788	0.857	0.866	1.12
HOP-62	0.267	0.268	0.176	0.208	0.211	0.988	0.879	0.93	0.774	0.688	1.3	0.643	1.01	1.01	0.922	1.09	0.858	0.722	0.701	0.93
NCI-H3122	0.427	0.445	0.394	0.491	0.415	0.0828	0.0692	0.0932	0.0953	0.0538	0.265	0.283	0.324	0.269	0.273	0.994	1.01	1.03	1.13	0.938
NCI-H647	0.44	0.331	0.39	0.418	0.365	0.256	0.103	0.171	0.153	0.0987	1.22	1.01	0.991	0.596	0.173	1.77	0.939	0.654	0.614	0.121
NCI-H650	0.326	0.339	0.35	0.323	0.325	0.803	0.785	0.834	0.497	0.339	0.824	0.548	0.627	0.802	0.909	0.972	0.83	0.798	0.858	1.22
